Experimental data as given in PubChem BioAssay AID318 (DTP/NCI, 2004).
Several values for one entry are separate records, joined by “and”; a condition that tells them apart may be missing. Identical values can stand only once. Toxic doses and inconclusive results are not listed. The calls were made as follows: active = survival T/C of 150% or more; inactive = T/C below 125% in these data. Starred links: 1 amine or outer side, 2 acyl side, 3 side chain; linkers in the order of their positions; H or OH if unused. Positions of bridges follow the written chain, without caps; N, C: chain ends. Non-standard residues stand in square brackets, D forms with d. Residues, ends and D or L forms follow the SMILES beside them. Chains are numbered I, II in the order given. Actinocin(9to1) = Cc1c2oc3c(C)ccc(C(=O)[*:1])c3nc-2c(C(=O)[*:2])c(N)c1=O; aThr = C[C@H](O)[C@H](N)C(=O)O; NMeV = CN[C@H](C(=O)O)C(C)C; Sar = CNCC(=O)O

Test system: BDF1 mice, P815 leukemia ip, survival T/C
Assay: NCI In Vivo Anticancer Drug Screen. Data for tumor model P815 Mast Cell Leukemia (Ascitic) (intraperitoneal) in B6D2F1 (BDF1) mice
Settings: higher = longer survival
Protocol: The antitumor activity of compounds was measured in mice bearing transplantable tumors. Survival or tumor size were measured and the results are expressed as the measurement made in the treated group (T) divided by the measurement made in the vehicle treated control group (C). The tumor model used in this assay is P815 Mast Cell Leukemia (Ascitic) (intraperitoneal) in B6D2F1 (BDF1) mice

[1] = endpoint: survival time, mean or median, dose: 167.0 mg/kg/injection, schedule: Q01DX010 (ip), vehicle: saline
[2] = endpoint: survival time, mean or median, dose: 250.0 mg/kg/injection, schedule: Q01DX010 (ip), vehicle: saline
[3] = endpoint: survival time, mean or median, dose: 3.13 mg/kg/injection, schedule: Q01DX010 (ip), vehicle: saline
[4] = endpoint: survival time, mean or median, dose: 6.25 mg/kg/injection, schedule: Q01DX010 (ip), vehicle: saline
[5] = endpoint: survival time, mean or median, dose: 12.5 mg/kg/injection, schedule: Q01DX010 (ip), vehicle: saline
[6] = endpoint: survival time, mean or median, dose: 30.0 mg/kg/injection, schedule: Q01DX010 (ip), vehicle: saline
[7] = endpoint: survival time, mean or median, dose: 8.0 mg/kg/injection, schedule: Q01DX010 (ip), vehicle: saline
[8] = endpoint: survival time, mean or median, dose: 18.0 mg/kg/injection, schedule: Q01DX010 (ip), vehicle: saline
[9] = endpoint: survival time, mean or median, dose: 20.0 mg/kg/injection, schedule: Q01DX010 (ip), vehicle: saline
[10] = endpoint: survival time, mean or median, dose: 5.0 mg/kg/injection, schedule: Q01DX010 (ip), vehicle: saline
[11] = endpoint: survival time, mean or median, dose: 10.0 mg/kg/injection, schedule: Q01DX010 (ip), vehicle: saline
[12] = endpoint: survival time, mean or median, dose: 40.0 mg/kg/injection, schedule: Q01DX010 (ip), vehicle: saline

Measured: T/C

O=C(Nc1ccc(C2=NCCN2)cc1)c1cc(C(=O)Nc2ccc(C3=NCCN3)cc2)cc([N+](=O)[O-])c1
inactive: [1] 91 % of control | [2] 95 % of control | endpoint: survival time, mean or median, dose: 375.0 mg/kg/injection, schedule: Q01DX010 (ip), vehicle: saline 91 % of control

[I][Hg][CH2]C1COC([CH2][Hg][I])CO1 (stereo unspecified)
inactive: [3] 90 % of control | [4] 90 % of control | [5] 95 % of control | endpoint: survival time, mean or median, dose: 25.0 mg/kg/injection, schedule: Q01DX010 (ip), vehicle: saline 90 % of control

O=C(O)CCCc1ccc(N(CCCl)CCCl)cc1
inactive: [3] 100 % of control | [4] 105 % of control | [5] 122 % of control

C[N+](C)(C)c1ncnc2nc[nH]c12
inactive: endpoint: survival time, mean or median, dose: 15.0 mg/kg/injection, schedule: Q01DX010 (ip), vehicle: saline 100 % of control | [6] 94 % of control | endpoint: survival time, mean or median, dose: 60.0 mg/kg/injection, schedule: Q01DX010 (ip), vehicle: saline 88 % of control

CCCNC(=NC)c1ccc(NC(=O)c2ccc(C(=O)Nc3ccc(C(=NC)NCCC)cc3)cc2)cc1
inactive: endpoint: survival time, mean or median, dose: 5.2 mg/kg/injection, schedule: Q01DX010 (ip), vehicle: saline 121 % of control | [7] 121 % of control | endpoint: survival time, mean or median, dose: 12.0 mg/kg/injection, schedule: Q01DX010 (ip), vehicle: saline 121 % of control | [8] 100 % of control

CN=C(NC)c1ccc(NC(=O)c2ccc(C(=O)Nc3ccc(C(=NC)NC)cc3)c(Cl)c2)cc1
inactive: [8] 91 % of control | endpoint: survival time, mean or median, dose: 27.0 mg/kg/injection, schedule: Q01DX010 (ip), vehicle: saline 100 % of control

CN(Cc1cnc2nc(N)nc(N)c2n1)c1c(Cl)cc(C(=O)NC(CCC(=O)O)C(=O)O)cc1Cl (stereo unspecified)
inactive: endpoint: survival time, mean or median, dose: 100.0 mg/kg/injection, schedule: Q01DX015 (ip), vehicle: carboxymethylcellulose (CMC) 121 % of control
active: endpoint: survival time, mean or median, dose: 5.0 mg/kg/injection, schedule: Q01DX015 (ip), vehicle: carboxymethylcellulose (CMC) 150 % of control | endpoint: survival time, mean or median, dose: 10.0 mg/kg/injection, schedule: Q01DX015 (ip), vehicle: carboxymethylcellulose (CMC) 164 % of control | endpoint: survival time, mean or median, dose: 13.2 mg/kg/injection, schedule: Q01DX015 (ip), vehicle: carboxymethylcellulose (CMC) 166 % of control | endpoint: survival time, mean or median, dose: 20.0 mg/kg/injection, schedule: Q01DX015 (ip), vehicle: carboxymethylcellulose (CMC) 164 % of control | endpoint: survival time, mean or median, dose: 25.0 mg/kg/injection, schedule: Q01DX015 (ip), vehicle: carboxymethylcellulose (CMC) 190 % of control | endpoint: survival time, mean or median, dose: 30.0 mg/kg/injection, schedule: Q01DX015 (ip), vehicle: carboxymethylcellulose (CMC) 181 % of control | endpoint: survival time, mean or median, dose: 45.0 mg/kg/injection, schedule: Q01DX015 (ip), vehicle: carboxymethylcellulose (CMC) 179 % of control | endpoint: survival time, mean or median, dose: 67.5 mg/kg/injection, schedule: Q01DX015 (ip), vehicle: carboxymethylcellulose (CMC) 164 % of control

CNc1nc(Nc2ccc(C3=NCCN3)cc2)nc(Nc2ccc(C3=NCCN3)cc2)n1
inactive: endpoint: survival time, mean or median, dose: 13.3 mg/kg/injection, schedule: Q01DX010 (ip), vehicle: saline 108 % of control | [9] 108 % of control | [6] 108 % of control | endpoint: survival time, mean or median, dose: 45.0 mg/kg/injection, schedule: Q01DX010 (ip), vehicle: saline 116 % of control

O=c1[nH]c(=O)n(C2CC(O)C(CO)O2)cc1F (stereo unspecified)
inactive: [10] 100 % of control | [11] 100 % of control and 105 % of control | [9] 111 % of control and 116 % of control | [12] 111 % of control

CN(C)[C@@H]1C(=O)C(C(N)=O)=C(O)[C@@]2(O)C(=O)C3=C(O)c4c(O)cccc4C[C@H]3C[C@@H]12
inactive: endpoint: survival time, mean or median, dose: 30.0 mg/kg/injection, schedule: Q01DX015 (ip), vehicle: alkali diluted with saline 117 % of control

O=C(Nc1ccc(C2=NCCN2)cc1)c1cccc(C(=O)Nc2ccc(C3=NCCN3)cc2)c1
inactive: [7] 118 % of control
active: endpoint: survival time, mean or median, dose: 32.0 mg/kg/injection, schedule: Q01DX010 (ip), vehicle: saline 200 % of control and 160 % of control | endpoint: survival time, mean or median, dose: 64.0 mg/kg/injection, schedule: Q01DX010 (ip), vehicle: saline 181 % of control and 233 % of control

O=C(Nc1ccc(C2=NCCN2)cc1)c1ccc(C(=O)Nc2ccc(C3=NCCN3)cc2)cc1
inactive: [2] 108 % of control
active: endpoint: survival time, mean or median, dose: 75.0 mg/kg/injection, schedule: Q01DX010 (ip), vehicle: saline 158 % of control | endpoint: survival time, mean or median, dose: 112.0 mg/kg/injection, schedule: Q01DX010 (ip), vehicle: saline 175 % of control | [1] 175 % of control

CC(=O)NC1=C(N2CC2)C(=O)C(NC(C)=O)=C(N2CC2)C1=O
active: endpoint: survival time, mean or median, dose: 0.5 mg/kg/injection, schedule: Q01DX015 (ip), vehicle: carboxymethylcellulose (CMC) 203 % of control
inactive: endpoint: survival time, mean or median, dose: 1.0 mg/kg/injection, schedule: Q01DX015 (ip), vehicle: carboxymethylcellulose (CMC) 103 % of control

CCOC(=O)c1c[nH]c2ccc(N(CCCl)CCCl)cc12
inactive: [10] 100 % of control | [11] 100 % of control | [9] 100 % of control | [12] 105 % of control | endpoint: survival time, mean or median, dose: 80.0 mg/kg/injection, schedule: Q01DX010 (ip), vehicle: saline 112 % of control

Nc1ccc(OC(=O)Oc2ccc(N)cc2)cc1
inactive: endpoint: survival time, mean or median, dose: 25.0 mg/kg/injection, schedule: Q01DX015 (ip), vehicle: saline 97 % of control | endpoint: survival time, mean or median, dose: 50.0 mg/kg/injection, schedule: Q01DX015 (ip), vehicle: saline 102 % of control | endpoint: survival time, mean or median, dose: 100.0 mg/kg/injection, schedule: Q01DX015 (ip), vehicle: saline 108 % of control | endpoint: survival time, mean or median, dose: 200.0 mg/kg/injection, schedule: Q01DX015 (ip), vehicle: saline 104 % of control

CC(=O)N(C)C
inactive: endpoint: survival time, mean or median, dose: 62.5 mg/kg/injection, schedule: Q01DX010 (ip), vehicle: saline 91 % of control and 100 % of control | endpoint: survival time, mean or median, dose: 125.0 mg/kg/injection, schedule: Q01DX010 (ip), vehicle: saline 100 % of control and 108 % of control | [2] 91 % of control | endpoint: survival time, mean or median, dose: 500.0 mg/kg/injection, schedule: Q01DX010 (ip), vehicle: saline 95 % of control and 104 % of control

Cc1c2oc3c(C)ccc(C(=O)N[C@@H]4C(=O)N[C@H](C(C)C)C(=O)N5CCC[C@H]5C(=O)N(C)CC(=O)N(C)[C@@H](C(C)C)C(=O)O[C@H]4C)c3nc-2c(C(=O)N[C@@H]2C(=O)N[C@H](C(C)C)C(=O)N3CCC[C@H]3C(=O)N(C)CC(=O)N(C)[C@@H](C(C)C)C(=O)O[C@H]2C)c(N)c1=O (I: [aThr][dV]P[Sar][NMeV] / II: [aThr][dV]P[Sar][NMeV]; ester I:1-I:C, II:1-II:C; linker I:N-II:N via Actinocin(9to1))
inactive: endpoint: median survival time, dose: 180.0 micrograms/kg/injection, schedule: Q04DX003 (ip), vehicle: saline + alcohol 122 % of control | endpoint: median survival time, dose: 300.0 micrograms/kg/injection, schedule: Q04DX003 (ip), vehicle: saline + alcohol 105 % of control | endpoint: median survival time, dose: 500.0 micrograms/kg/injection, schedule: Q04DX003 (ip), vehicle: saline + alcohol 90 % of control

O=C(Nc1ccc(C2=NCCN2)cc1)c1cc(Cl)cc(C(=O)Nc2ccc(C3=NCCN3)cc2)c1
inactive: endpoint: survival time, mean or median, dose: 140.0 mg/kg/injection, schedule: Q01DX010 (ip), vehicle: saline 91 % of control | endpoint: survival time, mean or median, dose: 210.0 mg/kg/injection, schedule: Q01DX010 (ip), vehicle: saline 95 % of control | endpoint: survival time, mean or median, dose: 315.0 mg/kg/injection, schedule: Q01DX010 (ip), vehicle: saline 86 % of control | endpoint: survival time, mean or median, dose: 473.0 mg/kg/injection, schedule: Q01DX010 (ip), vehicle: saline 91 % of control

C=CCSc1nc(N)nc2nc[nH]c12
inactive: endpoint: survival time, mean or median, dose: 15.0 mg/kg/injection, schedule: Q01DX015 (ip), vehicle: other 113 % of control | endpoint: survival time, mean or median, dose: 16.0 mg/kg/injection, schedule: Q01DX015 (ip), vehicle: other 109 % of control | endpoint: survival time, mean or median, dose: 31.0 mg/kg/injection, schedule: Q01DX015 (ip), vehicle: other 96 % of control and 107 % of control | endpoint: survival time, mean or median, dose: 62.0 mg/kg/injection, schedule: Q01DX015 (ip), vehicle: other 106 % of control and 112 % of control | endpoint: survival time, mean or median, dose: 125.0 mg/kg/injection, schedule: Q01DX015 (ip), vehicle: other 89 % of control and 91 % of control
